The text below walks through data of ChEMBL document CHEMBL4680133, “Novel nitroimidazole derivatives evaluated for their trypanocidal, cytotoxic, and genotoxic activities” (Eur J Med Chem, 2020).

The IC50 is the concentration needed to halve the response being measured.

For one data set, the system named is Trypanosoma cruzi. Description: Antitrypanosomal activity against bloodstream form of Trypanosoma cruzi Y trypomastigotes infected in African green monkey Vero cells assessed as increase in parasite lysis measured after 24 hrs by Neubauer chamber method. The format is functional, organism-based.
The nature of data set [1]: Mutagenicity in Salmonella typhimurium TA97 assessed as revertant/ug measured after 20 mins in presence of S9 fraction by microsome assay. The format is toxicity, subcellular. The conditions noted are these: salmonella enterica subsp. enterica serovar typhimurium, s9, 20 min.
Data set [2] is described as follows: Mutagenicity in Salmonella typhimurium TA97 assessed as revertant/ug measured after 20 mins in absence of S9 fraction by microsome assay. The format is toxicity. The conditions noted are these: salmonella enterica subsp. enterica serovar typhimurium, microsomes.
Data set [3] is described as follows: Mutagenicity in Salmonella typhimurium TA100 assessed as revertant/ug measured after 20 mins in presence of S9 fraction by microsome assay. The note with it: salmonella enterica subsp. enterica serovar typhimurium, s9, 20 min. It is filed as toxicity, subcellular.
Data set [4] is described as follows: Mutagenicity in Salmonella typhimurium TA100 assessed as revertant/ug measured after 20 mins in absence of S9 fraction by microsome assay. The conditions noted are these: salmonella enterica subsp. enterica serovar typhimurium, microsomes. It is filed as toxicity.

Bounds are passed on as bounds.

`Cn1cnc([N+](=O)[O-])c1-n1cc(C2=CCCCC2)nn1`: the half-maximal inhibitory concentration (IC50) in the data set on Trypanosoma cruzi stood at 41.7 µM.

As for `Cn1cnc([N+](=O)[O-])c1-n1cc(-c2ccccc2)nn1`, the IC50 in the data set on Trypanosoma cruzi is 25.2 µM.

On to `COC(=O)c1cn(-c2c([N+](=O)[O-])ncn2C)nn1`, for which the IC50 in the data set on Trypanosoma cruzi came to 31.3 µM.

On to `Cn1cnc([N+](=O)[O-])c1-n1ccnc1`, for which the half-inhibitory concentration (IC50) in the data set on Trypanosoma cruzi was greater than 2000 µM.

For `Cn1cnc([N+](=O)[O-])c1-n1cncn1`, the IC50 with Trypanosoma cruzi was determined as 354 µM.

Consider `Cn1cnc([N+](=O)[O-])c1-n1cccn1`, for which the Activity result in data set [1] was “Non-Toxic”; in data set [2], 11.5 revertants/µg; in data set [3], 35.5 revertants/µg; in data set [4] it was 65.5 revertants/µg.
